Measurements as given in patent publication EP0588608A2, “Tricyclic compounds and pharmaceutical compositions containing them” (KYOWA HAKKO KOGYO CO., LTD., priority 1992, dated 1994).

How the values were obtained:
[1] = test system: ACAT; assay: ACAT inhibiting activity test using HepG2 cells; assay type: cell-based; conditions: 10⁻⁶M test compound, human cultured cell line HepG2, [14C]-oleic acid incorporation into cholesterol ester; 1 µM
Procedure: The ACAT inhibiting activity test using cells of human cultured cell line HepG2 was carried out in accordance with the method of Goldstein et al as described in Methods Enzymology, 98, 241, 1983. 5 x 10⁵ cells/well of human cultured cell line HepG2 were pre-cultured in 5% LPDS (rabbit lipoprotein-deficient serum)-DMEM (Dulbecco Modified Eagle Medium) overnight, and the medium was changed for a fresh 5% LPDS-DMEM (1 mℓ/well). To the medium having the cells were added 3 µℓ, as a whole, of cholesterol and 25-OH-cholesterol as dissolved in ethanol (with the final concentration being 10 µg/mℓ and 5 µg/mℓ, respectively) and 10 µℓ of a test compound (shown in Table 3 below) as dissolved in methanol (with the final concentration being 10⁻⁶M). The cells were cultured for 4 hours. Then, 10 µℓ (0.42 µCi/0.1 µmol/well) of [¹⁴C]-oleic acid-BSA (bovine serum albumin) complex was added to the medium, and the cells were cultured for further 2 hours. After the cultured cells were washed, the lipid of the cells was extracted with 0.5 mℓ/well of hexane/isopropanol (3/2) containing [3H]-cholesterol oleic acid 2000 dpm. The extract was dried to a solid under reduced pressure and the solid was fractionated by silica gel thin layer chromatography using a developing solvent of petroleum ether/diethyl ether/acetic acid (170/30/1) whereupon the radioactivity of the spot of the cholesterol ester was measured with a liquid scintillation counter. Subtracting the radioactivity of the blank test to which cholesterol and 25-OH-cholesterol were not added from the radioactivity as measured above gives the radioactivity of the test compound. The ACAT inhibiting activity of the test compound was calculated from the following equation, based on the radioactivity of the control group as obtained in the same manner as above without using the test compound. ACAT Inhibition (%) = {[Radioactivity of Control Group) - (Radioactivity of Test Compound)]/(Radioactivity of Control Group)} x 100

[2] = test system: male ddy strain mice; assay: Test for acute toxicity (minimum lethal dose, oral); assay type: in vivo; conditions: orally administered, mortality observed seven days after administration
Procedure: Groups of 3 male ddy strain mice weighing 20±1g were used. The test compounds were orally administered. Seven days after administration, the mortality was observed and the minimum lethal dose (MLD) was determined.

SMILES	Percentage of ACAT Inhibition [1] [%]	Acute Toxicity (MLD) [2] [mg/kg]
CC(C)c1cccc(C(C)C)c1NC(=O)NC=C1c2ccccc2COc2ccccc21 [Compound 4]	93	–
Cc1ccc2c(c1)C(CNC(=O)Nc1c(C(C)C)cccc1C(C)C)c1ccccc1CO2 (centres unmarked) [Compound 1, N-(2,6-diisopropylphenyl)-N'-(2-methyl-6,11-dihydrodibenz[b,e]oxepin-11-ylmethyl)urea]	99	–
CC(C)c1cccc(C(C)C)c1NC(=O)NC=C1c2ccccc2CCc2ccccc21 [Compound 5]	94	>300
CC(C)c1cccc(C(C)C)c1NC(=O)OCC1c2ccccc2COc2ccccc21 (centres unmarked) [Compound 6, (6,11-Dihydrodibenz[b,e]oxepin-11-ylmethyl)-(2,6-diisopropylphenyl)carbamate]	40	–
CC(C)c1cccc(C(C)C)c1NC(=O)NCC1c2ccccc2COc2ccc(Br)cc21 (centres unmarked) [Compound 2, N-(2,6-diisopropylphenyl)-N'-(2-bromo-6,11-dihydrodibenz[b,e]oxepin-11-ylmethyl)urea]	98	>300
Cc1cc2c(c(C)c1Br)C(CNC(=O)Nc1c(C(C)C)cccc1C(C)C)c1ccccc1CO2 (centres unmarked) [Compound 3, N-(2,6-diisopropylphenyl)-N'-(2-bromo-1,3-dimethyl-6,11-dihydrobenz[b,e]oxepin-11-ylmethyl)urea]	97	–
